From publication PMC5257293 (Journal of medicinal chemistry, 2016)

What was measured:
[1] = test system: S. aureus 43300; conditions: cited from earlier work
[2] = test system: Sa43300(F98Y); test: Mutant selection / mutational frequency at 6x MIC; format: cell-based, Staphylococcus aureus; conditions: progenitor Sa(F98Y), selection at 6x MIC
[3] = test system: Sa43300; test: Mutant selection / mutational frequency at 6x MIC; format: cell-based, Staphylococcus aureus; conditions: progenitor Sa43300, selection at 6x MIC
[4] = test system: Sa43300(H149R); test: Mutant selection / mutational frequency at 6x MIC; format: cell-based, Staphylococcus aureus; conditions: progenitor Sa(H149R), selection at 6x MIC
[5] = target: Sa(H30N, F98Y) DHFR (Staphylococcus aureus, UniProt P0A017, F99Y/H31N); test: DHFR enzyme inhibition; format: biochemical; conditions: Ki ratio mutant vs wild-type

SMILES | mutation frequencies (mutants F98Y and F98I in the DHFR gene) [1] | Mutational Frequency, DHFR mutation F98Y/H30N [2] | Mutational Frequency, DHFR mutation F98Y [3] | Mutational Frequency, DHFR mutation H30N [3] | Mutational Frequency, DHFR mutation H149R [3] | Mutational Frequency, DHFR mutation F98Y/H149R [4] | loss in affinity for Sa (F98Y, H30N) double mutant enzyme relative to wild-type [5]
CCc1nc(N)nc(N)c1C#CC(C)c1cc(OC)cc(-c2ccncc2)c1 (centres unmarked) [Compound 1] | 10^−10 | 8.2 x 10^−12 | 3.11 x 10^−11 | 4.67 x 10^−11 | 1.65 x 10^−10 | 1.23x10^−11 | 
CCc1nc(N)nc(N)c1C#CC(C)c1cc2c(c(-c3ccncc3)c1)OCO2 (centres unmarked) [Compound 2] |  |  |  |  |  |  | 180 to 300 fold
CCc1nc(N)nc(N)c1C#C[C@H](C)c1cc2c(c(-c3ccncc3)c1)OCO2 [Compound 7] |  |  |  |  |  |  | 180 to 300 fold
